Here are results for 63 substances from patent publication US8932597B2 (priority 2008, dated 2015).

The subject of experiment [1] is HuM2e antibody 23K12. The class given is binding, human.
Experiment [2] deals with anti-M2 human monoclonal antibody Z3G1. The class given is binding.

As for “127 (CSLLTEVETCSLLTEVETC; epitope peptide) [compound 127]”, in experiment [1], the “Signal (peptides that bind to 23K21 and 8I10)” value was determined as 1647. In experiment [2], the “Signal (peptides that show specific binding to Z3G1)” value came out at 2555. Consider “161 (CPIRNEWGSRSNDSSDCSLLTEVETC; epitope peptide) [compound 161]”, for which, in experiment [1], the “Signal (peptides that bind to 23K21 and 8I10)” value is 1206. Moreover, the “Signal (peptides that show specific binding to Z3G1)” value in experiment [2] amounted to 2759. For “201 (CEVETPIRNEWGSRSNCSLLTEVETC; epitope peptide) [compound 201]”, in that order: 1007 and 2288.

Regarding “213 (CETPIRNEWGSRSNDSCSLLTEVETC; epitope peptide) [compound 213]”, the “Signal (peptides that bind to 23K21 and 8I10)” value in experiment [1] came to 971. Also, the “Signal (peptides that show specific binding to Z3G1)” value in experiment [2] is listed as 1997. On to “215 (CSLLTEVETCLTEVETPIRNEWGSRC; epitope peptide) [compound 215]”, for which the “Signal (peptides that bind to 23K21 and 8I10)” value in experiment [1] was determined as 958. The “Signal (peptides that show specific binding to Z3G1)” value in experiment [2] is given as 2328. For “223 (CVETPIRNEWGSRSNDCSLLTEVETC; epitope peptide) [compound 223]”, in that order: 905 and 2233. In the case of “226 (CTEVETPIRNEWGSRSCSLLTEVETC; epitope peptide) [compound 226]”, in experiment [1], the “Signal (peptides that bind to 23K21 and 8I10)” value is listed as 891. In experiment [2], the “Signal (peptides that show specific binding to Z3G1)” value is 2140. In the case of “230 (CTPIRNEWGSRSNDSSCSLLTEVETC; epitope peptide) [compound 230]”, the “Signal (peptides that bind to 23K21 and 8I10)” value in experiment [1] was 861. In addition, the “Signal (peptides that show specific binding to Z3G1)” value in experiment [2] is listed as 2168.

On to “239 (CSLLTEVETCEVETPIRNEWGSRSNC; epitope peptide) [compound 239]”, for which the “Signal (peptides that bind to 23K21 and 8I10)” value in experiment [1] is on record as 821. The “Signal (peptides that show specific binding to Z3G1)” value in experiment [2] is given as 2549. In the case of “250 (CSLLTEVETCTEVETPIRNEWGSRSC; epitope peptide) [compound 250]”, the “Signal (peptides that bind to 23K21 and 8I10)” value in experiment [1] is on record as 786. In addition, the “Signal (peptides that show specific binding to Z3G1)” value in experiment [2] amounted to 2474. For “264 (CSLLTEVETCVETPIRNEWGSRSNDC; epitope peptide) [compound 264]”, in that order: 707 and 2374. For “268 (SLLTEVETPIRNECGCRCNDSSD; epitope peptide) [compound 268]”, in that order: 682 and 2554. Turning to “283 (CSLLTEVGSLLTEV; epitope peptide) [compound 283]”, the “Signal (peptides that bind to 23K21 and 8I10)” value in experiment [1] worked out at 2494. Besides, the “Signal (peptides that show specific binding to Z3G1)” value in experiment [2] worked out at 2903. On to “284 (ASLLTEVGSLLTCV; epitope peptide) [compound 284]”, for which the “Signal (peptides that bind to 23K21 and 8I10)” value in experiment [1] was determined as 2443. Moreover, the “Signal (peptides that show specific binding to Z3G1)” value in experiment [2] was found to be 2358. For “285 (MSLLTEVGMSLLTCV; epitope peptide) [compound 285]”, the “Signal (peptides that bind to 23K21 and 8I10)” value in experiment [1] amounted to 2389. Also, the “Signal (peptides that bind to Z3G1)” value in experiment [2] is reported as 2872.

In the case of “286 (CSLLTEVGMSLLTCV; epitope peptide) [compound 286]”, in experiment [1], the “Signal (peptides that bind to 23K21 and 8I10)” value came to 2311. For the same substance, the “Signal (peptides that bind to Z3G1)” value in experiment [2] was 2768. For “287 (MSLLTEVGMSLLTEV; epitope peptide) [compound 287]” the same measures were 2267 and 2878. Take “462 (SLLTECGCLLTEV; epitope peptide) [compound 462]”: the “Signal (peptides that bind to 23K21 and 8I10)” value in experiment [1] turned out to be 1259. The same measure, in the same setting: with “463 (CSLLTECGSLLTCV; epitope peptide) [compound 463]” the figure was 1258; with “466 (SCLTEVGCSLLTEV; epitope peptide) [compound 466]”, 1250. The same measure, in the same setting: for “468 (SCLCECGSLLTEC; epitope peptide) [compound 468]” the value was 1244; for “469 (MSLLTECGMSLLTEC; epitope peptide) [compound 469]”, 1236. Still for that read-out and setting: for “471 (SLLTEEETPIRNEWGCRCNDSSD; epitope peptide) [compound 471]” the value was 1220; for “472 (SLLTECGSLCTEV; epitope peptide) [compound 472]”, 1218. In the case of “474 (SLLTECETPIRNEWGCRCNDSSD; epitope peptide) [compound 474]”, the “Signal (peptides that bind to 23K21 and 8I10)” value in experiment [1] is given as 1214. Turning to “475 (MSLLTECGMSLCTEV; epitope peptide) [compound 475]”, the “Signal (peptides that bind to 23K21 and 8I10)” value in experiment [1] is listed as 1212. The same measure, in the same setting: for “479 (SLLTEDETPIRNEWGCRCNDSSD; epitope peptide) [compound 479]” the value was 1196. The same measure, in the same setting: for “480 (SLLTECGCLCTCV; epitope peptide) [compound 480]” the value was 1193. Consider “481 (CSLLTECGMSLCTEV; epitope peptide) [compound 481]”, for which, in experiment [1], the “Signal (peptides that bind to 23K21 and 8I10)” value is listed as 1187.

For “483 (CSLLTECGCSLLTEC; epitope peptide) [compound 483]”, the “Signal (peptides that bind to 23K21 and 8I10)” value in experiment [1] amounted to 1177.

With “485 (CSLLTECGMCLCTCV; epitope peptide) [compound 485]”, the “Signal (peptides that bind to 23K21 and 8I10)” value in experiment [1] is recorded as 1168. The same measure, in the same setting: for “486 (SLFTEVETPIRNEWGCRCNDSSD; epitope peptide) [compound 486]” the value was 1156; for “487 (SLLTNVETPIRNEWGCRCNDSSD; epitope peptide) [compound 487]”, 1142; for “489 (MSLLTECGMCLLTEV; epitope peptide) [compound 489]”, 1111. Same read-out and setting: for “490 (SVLTEVETPIRNEWGCRCNDSSD; epitope peptide) [compound 490]” the value was 1109; for “494 (SLLTEQETPIRNEWGCRCNDSSD; epitope peptide) [compound 494]”, 1102; for “497 (SLLTECGSCLCEC; epitope peptide) [compound 497]”, 1077. Regarding “498 (SLLTEMETPIRNEWGCRCNDSSD; epitope peptide) [compound 498]”, the “Signal (peptides that bind to 23K21 and 8I10)” value in experiment [1] turned out to be 1076. Still for that read-out and setting: for “502 (CSCLCEVGSLLTEC; epitope peptide) [compound 502]” the value was 1064; for “505 (SLLTEKETPIRNEWGCRCNDSSD; epitope peptide) [compound 505]”, 1055. For “507 (SLCTEVETPIRNEWGCRCNDSSD; epitope peptide) [compound 507]”, the “Signal (peptides that bind to 23K21 and 8I10)” value in experiment [1] came to 1050. For “514 (SLLTEGETPIRNEWGCRCNDSSD; epitope peptide) [compound 514]”, the “Signal (peptides that bind to 23K21 and 8I10)” value in experiment [1] is given as 1029. As to “515 (SLLTEWETPIRNEWGCRCNDSSD; epitope peptide) [compound 515]”, the “Signal (peptides that bind to 23K21 and 8I10)” value in experiment [1] amounted to 1025. On the same count and under the same terms, for “518 (SYLTEVETPIRNEWGCRCNDSSD; epitope peptide) [compound 518]” the value was 1019. The same measure, in the same setting: for “521 (SLLTAVETPIRNEWGCRCNDSSD; epitope peptide) [compound 521]” the value was 1012; for “523 (SLLTEFETPIRNEWGCRCNDSSD; epitope peptide) [compound 523]”, 1009.

On to “526 (MSLLTECGMSCLCEC; epitope peptide) [compound 526]”, for which the “Signal (peptides that bind to 23K21 and 8I10)” value in experiment [1] amounted to 992. “530 (SLLTESETPIRNEWGCRCNDSSD; epitope peptide) [compound 530]”: the “Signal (peptides that bind to 23K21 and 8I10)” value in experiment [1] turned out to be 974. As to “531 (MSLCTEVGMSLLTEC; epitope peptide) [compound 531]”, the “Signal (peptides that bind to 23K21 and 8I10)” value in experiment [1] is 970. For the substance “539 (SLLTEYETPIRNEWGCRCNDSSD; epitope peptide) [compound 539]”, the “Signal (peptides that bind to 23K21 and 8I10)” value in experiment [1] was determined as 950.

Take “540 (SLLTEHETPIRNEWGCRCNDSSD; epitope peptide) [compound 540]”: in experiment [1], the “Signal (peptides that bind to 23K21 and 8I10)” value came out at 942. The same measure, in the same setting: for “548 (CSLLTECGSLCTEV; epitope peptide) [compound 548]” the value was 917. As to “550 (SLLTENETPIRNEWGCRCNDSSD; epitope peptide) [compound 550]”, the “Signal (peptides that bind to 23K21 and 8I10)” value in experiment [1] was 914. As to “554 (CLLTEVGSLLTCV; epitope peptide) [compound 554]”, in experiment [1], the “Signal (peptides that bind to 23K21 and 8I10)” value is 902.

With “558 (CSLLTECGMSCLCEC; epitope peptide) [compound 558]”, the “Signal (peptides that bind to 23K21 and 8I10)” value in experiment [1] was found to be 897.

Turning to “561 (SCLTEVETPIRNEWGCRCNDSSD; epitope peptide) [compound 561]”, the “Signal (peptides that bind to 23K21 and 8I10)” value in experiment [1] turned out to be 892.

Turning to “567 (SLLTECGCSCLCEV; epitope peptide) [compound 567]”, the “Signal (peptides that bind to 23K21 and 8I10)” value in experiment [1] is reported as 879. With “574 (CLLTEVGSLLTEC; epitope peptide) [compound 574]”, in experiment [1], the “Signal (peptides that bind to 23K21 and 8I10)” value was 866. Still for that read-out and setting: for “578 (SLLTERETPIRNEWGCRCNDSSD; epitope peptide) [compound 578]” the value was 859; for “589 (CSLLTECGMSCLTEV; epitope peptide) [compound 589]”, 846. For “601 (SLLTECGSCLTEV; epitope peptide) [compound 601]”, the “Signal (peptides that bind to 23K21 and 8I10)” value in experiment [1] is given as 830.

Regarding “604 (SLCTEVGSCLTEV; epitope peptide) [compound 604]”, in experiment [1], the “Signal (peptides that bind to 23K21 and 8I10)” value was 824.

As to “655 (SLYTEVETPIRNEWGCRCNDSSD; epitope peptide) [compound 655]”, in experiment [1], the “Signal (peptides that bind to 23K21 and 8I10)” value is 753.
